Results: PubChem BioAssay AID1288 (Columbia University Molecular Screening Center, 2008)
The source made the active and inactive calls. No rule for the calls is given here.

Assay: inhibitors of TNFa-induced E-selectin expression, confirmation, imaging, retest plus dose response, cell count (AID 1288);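 also: 0% = stimulated vehicle wells and 100% = unstimulated vehicle wells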
Details: human endothelial cells, TNFa-induced E-selectin, imaging; at 2 µM; active compounds read high

Row | SMILES | inhibition
1 | COc1ccc(C(=O)NCC(C)C)c(OC)c1 | 24.1% (inactive)
2 | O=S1(=O)CCN(C(CCO)c2cccc(C(F)(F)F)c2)CC1 (stereo not given) | 4.23% (inactive)
3 | CC(C)(C)OC(=O)NNC(=O)NC12CC3CC(CC(C3)C1)C2 | 3.2% (inactive)
4 | O=C(c1ccc(COCC(F)(F)F)o1)N1CCCCCC1 | 5.74% (inactive)
5 | C=CCNS(=O)(=O)c1nc(C)c(Cl)c(C)c1C#N | 0.74% (inactive)
6 | C=CCc1cccc(/C=N/NC(=O)CCCNc2ccc(C)cc2)c1O | 11.2% (inactive)
7 | CO/C([O-])=N/c1c[n+](-c2ccc(Cl)cc2)no1 | 26.1% (inactive)
8 | O=c1cc(-c2ccc(F)cc2)oc2ccccc12 | 0.15% (inactive)
9 | O=c1[nH]cnc2cc(-c3ccccc3)sc12 | 7.67% (inactive)
10 | Cc1nc(=O)c(-c2ccccc2)c(C)n1-c1ccc(S(N)(=O)=O)cc1 | 42.4% (inactive)
11 | CCOc1cc(N2CCOCC2)c(OCC)cc1NS(=O)(=O)c1ccc(Cl)s1 | 6.76% (inactive)
12 | COC(=O)CN1C(=S)N(c2ccc(Cl)cc2)C(=O)C1CC(=O)Nc1ccc(Cl)cc1 (stereo not given) | -1.33% (inactive)
13 | COc1ccc(C(c2nnnn2Cc2ccccc2)N2CCN(c3nc4ccccc4s3)CC2)cc1 (stereo not given) | 2.21% (inactive)
14 | COC(=O)CSc1nc(N)nc(C)c1Br | 3.71% (inactive)
15 | O=c1cc(CO)oc(C(Nc2ccccn2)c2ccccc2F)c1O (stereo not given) | 13.7% (inactive)
16 | COC(=O)c1cc2ccsc2n1Cc1nc(-c2cccc(Cl)c2)oc1C | -2.86% (inactive)
17 | CCSc1nnc(-c2cccs2)o1 | 6.52% (inactive)
18 | COc1ccc(C(=O)NCCNC(C)=O)cc1S(=O)(=O)NCc1ccc(Cl)cc1 | 14.8% (inactive)
19 | CC(C(=O)O)C1SC(=O)NC1=O (stereo not given) | 12.7% (inactive)
20 | C=CCNC(=O)/C=C/c1cccs1 | -0.12% (inactive)
21 | Cc1ccc(/C=C/C(=O)C2C(=O)c3ccccc3C2=O)cc1 | 23.7% (inactive)
22 | COc1ccc(-c2cc(C)nc(SCc3cccc(C(=O)O)c3)n2)cc1 | 16.2% (inactive)
23 | O=C(c1cccc(F)c1)N1CCN(c2cc(N3CCCCC3)c(F)cc2[N+](=O)[O-])CC1 | 4.49% (inactive)
24 | COc1ccc(-c2ccc(C(=S)N3CCN(C(C)=O)CC3)o2)cc1 | 3.01% (inactive)
25 | O=[N+]([O-])c1ccc(O)c(/C=N/Nc2ccc(Cl)nn2)c1 | 3.18% (inactive)

Row | SMILES | inhibition
26 | CCN(/N=C/c1ccc(Cl)cc1)c1cc(=O)n(C)c(=O)[nH]1 | 12.2% (inactive)
27 | CCC(=O)Nc1cccc(NC(=O)CSc2nnc(-c3ccc(NS(C)(=O)=O)cc3)n2C)c1 | -2.9% (inactive)
28 | CCCOc1ccc(/C(O)=C2/C(=O)C(=O)N(CCCn3ccnc3)C2c2ccco2)cc1 (stereo not given) | 0.88% (inactive)
29 | Cc1ccc(N2C(=O)C3C4C=CC(CNC(=S)Nc5ccc(F)cc5)(O4)C3C2=O)cc1 (stereo not given) | 5.92% (inactive)
30 | Cc1ccc(C)n1NC(=O)c1cccs1 | 7.45% (inactive)
31 | CCOc1ccc(-n2nc(C(=O)N3CCN(CC)CC3)c3ccccc3c2=O)cc1 | 18.4% (inactive)
32 | COc1ccc(CCNC(=O)COc2ncnc3cc([N+](=O)[O-])ccc23)cc1 | 15.8% (inactive)
33 | CCn1c(=O)cc(SCC(=O)N2CCN(C3CCCCC3)CC2)c2ccccc21 | 16.9% (inactive)
34 | Cc1ccc(-n2ncc3c(=O)n(CC(=O)N4CCCCCC4)cnc32)cc1 | -0.4% (inactive)
35 | Cc1ccc(C(=O)c2c(NC(=O)c3ccccc3C)sc(C)c2C)cc1 | 4.34% (inactive)
36 | COc1ccc(S(=O)(=O)Nc2ccc(C)cc2)cc1N(C)S(=O)(=O)c1ccc(Cl)cc1 | 3.82% (inactive)
37 | CCOc1ccc(C)cc1-n1nc2ccccc2n1 | 34.6% (inactive)
38 | Cn1cccc1/C=C1\C(=O)NC(=O)N(CCC2=CCCCC2)C1=O | 6.01% (inactive)
39 | [O-][n+]1onc2c1C(N1CCOCC1)CCC2N1CCOCC1 (stereo not given) | 5.99% (inactive)
40 | CCCn1nnc(NC(=O)c2cccc(OCC(C)C)c2)n1 | 27.2% (inactive)
41 | Cc1cc(SCC(=O)c2cccs2)nc2ccccc12 | 8.62% (inactive)
42 | CN1C(=O)S/C(=C\c2ccccc2OCc2ccc(C(=O)O)cc2)C1=O | 15.9% (inactive)
43 | Cc1ccc(/C=C/C(=O)O)cc1S(=O)(=O)NCCO | 1.34% (inactive)
44 | CC1CC(Nc2ccccc2)=CC(=O)O1 (stereo not given) | -4.3% (inactive)
45 | CC(=O)c1c(C)[nH]c(C(=O)Nc2ccccc2N2CCOCC2)c1C | 4.19% (inactive)
46 | O=S1(=O)CCC(NC(=S)N2CCCCCC2)C1 (stereo not given) | 18.2% (inactive)
47 | COc1ccccc1C(=O)NC(CCSC)C(=O)OCC(=O)NC(=O)NCc1ccco1 (stereo not given) | 28% (inactive)
48 | COc1ccc2c(c1OC)C(=O)OC2c1c(O)nc(SC)n(-c2ccccc2)c1=O (stereo not given) | 4.68% (inactive)
49 | CC1Cc2cc(/C(O)=C3/C(=O)C(=O)N(CCCn4ccnc4)C3c3ccncc3)ccc2O1 (stereo not given) | 5.53% (inactive)
50 | CC(OC(=O)CCN1C(=O)c2cccc([N+](=O)[O-])c2C1=O)C(=O)Nc1cc(Cl)cc(Cl)c1 (stereo not given) | 36.2% (inactive)
